Data taken from patent publication US20260265244A1, “HETEROCYCLIC COMPOUNDS AS STING ANTAGONISTS” (Boehringer Ingelheim International GmbH, priority 2022, published 2026).

Key:
[1] = target: T1, cGAMP binding domain of wild-type (GRR) human STING, residues 155-341 (Homo sapiens, UniProt Q86WV6, H232R); experiment: Increase of stability of STING protein against thermal denaturation, Differential Scanning Fluorimetry (DSF)
T1 construct: His-TEV-hSTING (WT); TEV protease cleavage site (N); made in house; host or cells: E. coli BL21 DE3
T1 sequence (Q86WV6 with tags, fused parts or gaps H232R): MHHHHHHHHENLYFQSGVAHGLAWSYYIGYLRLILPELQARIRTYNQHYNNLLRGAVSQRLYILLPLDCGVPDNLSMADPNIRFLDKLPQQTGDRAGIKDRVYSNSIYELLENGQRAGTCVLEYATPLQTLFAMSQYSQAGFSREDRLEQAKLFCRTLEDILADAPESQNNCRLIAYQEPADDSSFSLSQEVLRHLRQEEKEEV
In short: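 3 µM His-tagged protein with 100 uM compound, 5×SYPRO Orange, 2% DMSO in 20 mM Tris, 150 mM NaCl, pH7.5; 15–95 °C ramp in 0.5 °C steps (15 s/cycle). Tm from Boltzmann fit of the dye melt curve, duplicates averaged, repeated if SD>1.5 °C; ΔTm = Tm with compound minus Tm of protein alone.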

[2] = target: T2, human STING WT (R232) (Homo sapiens, UniProt Q86WV6, H232R); experiment: Human STING HTRF binding assay (competitive, Cisbio 64BDSTGPEG)
T2 construct: purchased Cisbio 64BDSTGPEG
T2 sequence (Q86WV6 138-379 H232R): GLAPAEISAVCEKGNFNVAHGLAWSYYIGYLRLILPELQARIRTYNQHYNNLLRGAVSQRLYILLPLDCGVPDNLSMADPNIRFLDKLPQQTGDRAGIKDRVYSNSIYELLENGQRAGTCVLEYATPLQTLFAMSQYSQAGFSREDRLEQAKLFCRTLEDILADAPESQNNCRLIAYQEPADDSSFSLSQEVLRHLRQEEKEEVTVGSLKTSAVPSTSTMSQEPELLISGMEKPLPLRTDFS
Procedure: Binders to human STING WT (R232) were identified using a competitive HTRF assay format (Cisbio 64BDSTGPEG), which uses d2-labeled STING ligand, a 6His (SEQ ID NO: 2) tagged human STING protein, and an anti 6His (SEQ ID NO: 2) Cryptate-labeled antibody. Compounds compete with the STING ligand-d2 and thereby prevents FRET from occurring, which can be measured by an EnVision™ reader (PerkinElmer).
Assay method: Compounds were delivered as 10 mM DMSO solution, serially diluted by an Agilent Bravo Workstation and transferred to the 384 well assay plate (Perkin Elmer #6005359) using a Cybiwell dispenser. Typically, 8 concentrations were used with the highest concentration at 10 μM or 1 μM in the final assay volume followed by ~1:5 dilution steps. DMSO concentration was set to 1% in the final assay volume. The 384 well assay plate contained 20 test compounds and DMSO in column 23 and 24. A cGAMP standard dilution row was prepared according to the manufacturer and transferred to each assay plate. After transfer of compound solution or dilution buffer for negative (high) and positive (low) controls, 5 μl of the human STING protein (cyclic binding domain (residues 138-379) of the WT R232 human version, fused to a 6 His tag (SEQ ID NO: 2) at the Nter part; 1:50 dilution in detection buffer) were dispensed to all wells except of the positive control, which received detection buffer only. Plates were the centrifuged for 20 sec at 1000 rpm. After that, 10 μl of Anti-6His-Cryptate antibody/Sting ligand-d2 mix was added to all wells using a Multidrop combi dispenser, followed by another sec/1000 rpm centrifugation step. After an incubation of the plates for 180 min at room temperature, […] at […] (HTRF ratio) was measured using an Envison Reader (PerkinElmer).
Data evaluation and calculation: For data evaluation and calculation, HTRF ratios were calibrated using the cGAMP standard curve. After that, the measurement of the low control was set as 0% control and the measurement of the high control was set as 100% control. The IC50 values were calculated using the standard 4 parameter logistic regression formula. Calculation: [y=(a−d)/(1+(x/c)^b)+d], a=low value, d=high value; x=conc M; c=IC50 M; b=slope;

CC(C)n1cc2cc(-c3nc(-c4cccc5nn(C[C@H](O)c6ccccc6)cc45)c(C4CC4)n3C)c(C3CC3)nc2n1 [Example 33, (1R)-2-(4-{5-cyclopropyl-2-[6-cyclopropyl-2-(propan-2-yl)-2H-pyrazolo[3,4-b]pyridin-5-yl]-1-methyl-1H-imidazol-4-yl}-2H-indazol-2-yl)-1-phenylethan-1-ol]
DSF [1]: 31 K
IC50 [2]: 6.1 nM

Cn1cc2cc(-c3nc(-c4cccc5nn(C[C@H](O)c6ccccc6)cc45)c(C4CC4)n3C)c(OC(F)F)cc2n1 [Example 34, (1R)-2-(4-{5-cyclopropyl-2-[6-(difluoromethoxy)-2-methyl-2H-indazol-5-yl]-1-methyl-1H-imidazol-4-yl}-2H-indazol-2-yl)-1-phenylethan-1-ol]
DSF [1]: 29 K
IC50 [2]: 7.1 nM

Cc1c(C2CC2)c(-c2c(F)ccc3nn(C[C@H](O)c4ccccc4)cc23)nn1-c1cc2cn(C)nc2nc1C1CC1 [Example 35, (1R)-2-[4-(4-cyclopropyl-1-{6-cyclopropyl-2-methyl-2H-pyrazolo[3,4-b]pyridin-5-yl}-5-methyl-1H-pyrazol-3-yl)-5-fluoro-2H-indazol-2-yl]-1-phenylethan-1-ol]
DSF [1]: 29 K
IC50 [2]: 19.3 nM

CNC(=O)CO[C@@H](Cn1cc2c(-c3nn(-c4cc5cn(C)nc5nc4C)c(C)c3C(C)C)cccc2n1)c1ccccc1 [Example 36, 2-[(1R)-2-[4-(1-{2,6-dimethyl-2H-pyrazolo[3,4-b]pyridin-5-yl)-5-methyl-4-(propan-2-yl)-1H-pyrazol-3-yl)-2H-indazol-2-yl]-1-phenylethoxy]-N-methylacetamide]
DSF [1]: 24 K
IC50 [2]: 14.6 nM

Cc1nc2nn(CCO)cc2cc1-n1nc(-c2cccc3nn(C[C@H](O)c4ccccc4)cc23)c(C(C)C)c1C [Example 37, (1R)-2-(4-{1-[2-(2-hydroxyethyl)-6-methyl-2H-pyrazolo[3,4-b]pyridin-5-yl]-5-methyl-4-(propan-2-yl)-1H-pyrazol-3-yl}-2H-indazol-2-yl)-1-phenylethan-1-ol]
DSF [1]: 27 K
IC50 [2]: 5.5 nM

Cc1nc2nn(CCN(C)C)cc2cc1-n1nc(-c2cccc3nn(C[C@H](O)c4ccccc4)cc23)c(C(C)C)c1C [Example 39, (1R)-2-[4-(1-{2-[2-(dimethylamino)ethyl]-6-methyl-2H-pyrazolo[3,4-b]pyridin-5-yl}-5-methyl-4-(propan-2-yl)-1H-pyrazol-3-yl)-2H-indazol-2-yl]-1-phenylethan-1-ol]
DSF [1]: 25 K
IC50 [2]: 15.4 nM

Cc1nc2nn(CCCN3CCC(F)(F)C3)cc2cc1-n1nc(-c2cccc3nn(C[C@H](O)c4ccccc4)cc23)c(C(C)C)c1C [Example 40, (1R)-2-[4-(1-{2-[3-(3,3-difluoropyrrolidin-1-yl)propyl]-6-methyl-2H-pyrazolo[3,4-b]pyridin-5-yl}-5-methyl-4-(propan-2-yl)-1H-pyrazol-3-yl)-2H-indazol-2-yl]-1-phenylethan-1-ol]
DSF [1]: 27 K
IC50 [2]: 28.4 nM

Cn1cc2cc(-c3nc(-c4cccc5nn(C[C@H](O)c6ccc(OCCC(C)(C)O)cc6)cc45)c(C4CC4)n3C)c(C3CC3)nc2n1 [Example 41, 4-{4-[(1R)-2-[4-(5-cyclopropyl-2-{6-cyclopropyl-2-methyl-2H-pyrazolo[3,4-b]pyridin-5-yl}-1-methyl-1H-imidazol-4-yl)-2H-indazol-2-yl]-1-hydroxyethyl]phenoxy}-2-methylbutan-2-ol]
DSF [1]: 30 K
IC50 [2]: 6.4 nM

CNCc1nc2nn(C)cc2cc1-n1nc(-c2cccc3nn(C[C@H](O)c4ccccc4)cc23)c(C(C)C)c1C [Example 42, (1R)-2-[4-(5-methyl-1-{2-methyl-6-[(methylamino)methyl]-2H-pyrazolo[3,4-b]pyridin-5-yl}-4-(propan-2-yl)-1H-pyrazol-3-yl)-2H-indazol-2-yl]-1-phenylethan-1-ol]
DSF [1]: 26 K
IC50 [2]: 16.7 nM

Cc1nc2nn(C)cc2cc1-n1nc(-c2cccc3nn(C[C@H](O)c4ccc(F)c(F)c4)cc23)c(C(C)C)c1C [Example 44, (1R)-1-(3,4-difluorophenyl)-2-[4-(1-{2,6-dimethyl-2H-pyrazolo[3,4-b]pyridin-5-yl}-5-methyl-4-(propan-2-yl)-1H-pyrazol-3-yl)-2H-indazol-2-yl]ethan-1-ol]
DSF [1]: 26 K
IC50 [2]: 16.9 nM

Cc1nc2nn(CCCCN3CCN(C)CC3)cc2cc1-n1nc(-c2cccc3nn(C[C@H](O)c4ccccc4)cc23)c(C(C)C)c1C [Example 45, (1R)-2-[4-(5-methyl-1-{6-methyl-2-[4-(4-methylpiperazin-1-yl)butyl]-2H-pyrazolo[3,4-b]pyridin-5-yl}-4-(propan-2-yl)-1H-pyrazol-3-yl)-2H-indazol-2-yl]-1-phenylethan-1-ol]
DSF [1]: 27 K
IC50 [2]: 18.1 nM

Cc1nc2nn(C)cc2cc1-n1nc(-c2cccc3nn(C[C@H](O)c4ccc(F)cc4)cc23)c(C(C)C)c1C [Example 46, (1R)-2-[4-(1-{2,6-dimethyl-2H-pyrazolo[3,4-b]pyridin-5-yl}-5-methyl-4-(propan-2-yl)-1H-pyrazol-3-yl)-2H-indazol-2-yl]-1-(4-fluorophenyl)ethan-1-ol]
DSF [1]: 27 K
IC50 [2]: 15.2 nM

Cc1c(C(C)C)c(-c2cccc3nn(C[C@H](O)c4ccccc4)cc23)nn1-c1cc2cn(C)nc2nc1C1CCOC1 (stereo partly drawn) [Example 47, (1R)-2-(4-{5-methyl-1-[2-methyl-6-(oxolan-3-yl)-2H-pyrazolo[3,4-b]pyridin-5-yl]-4-(propan-2-yl)-1H-pyrazol-3-yl}-2H-indazol-2-yl)-1-phenylethan-1-ol]
DSF [1]: 30 K
IC50 [2]: 11.9 nM

CCCn1cc2cc(-c3nc(-c4cccc5nn(CC(F)(F)c6ccccc6)cc45)c(C4CC4)n3C)c(C3CC3)nc2n1 [Example 48, 4-(5-cyclopropyl-2-{6-cyclopropyl-2-propyl-2H-pyrazolo[3,4-b]pyridin-5-yl}-1-methyl-1H-imidazol-4-yl)-2-(2,2-difluoro-2-phenylethyl)-2H-indazole]
DSF [1]: 31 K
IC50 [2]: 22.7 nM

Cc1nc2nn(CCCN3CCOCC3)cc2cc1-n1nc(-c2cccc3nn(C[C@H](F)c4ccccc4)cc23)c(C(C)C)c1C [Example 49, 2-[(2R)-2-fluoro-2-phenylethyl]-4-(5-methyl-1-{6-methyl-2-[3-(morpholin-4-yl)propyl]-2H-pyrazolo[3,4-b]pyridin-5-yl}-4-(propan-2-yl)-1H-pyrazol-3-yl)-2H-indazole]
DSF [1]: 26 K
IC50 [2]: 22.2 nM

Cc1c(C(C)C)c(-c2cccc3nn(C[C@H](O)c4ccccc4)cc23)nn1-c1cc2cn(C)nc2[n+]([O-])c1C1CC1 [Example 50, 6-cyclopropyl-5-(3-{2-[(2R)-2-hydroxy-2-phenylethyl]-2H-indazol-4-yl}-5-methyl-4-(propan-2-yl)-1H-pyrazol-1-yl)-2-methyl-2H-pyrazolo[3,4-b]pyridin-7-ium-7-olate]
DSF [1]: 26 K
IC50 [2]: 16.3 nM

Cc1c(C(C)C)c(-c2cccc3nn(C[C@H](O)c4ccccc4)cc23)nn1-c1cc2cn(C)nc2nc1C1(F)CC1 [Example 51, (1R)-2-(4-{1-[6-(1-fluorocyclopropyl)-2-methyl-2H-pyrazolo[3,4-b]pyridin-5-yl]-5-methyl-4-(propan-2-yl)-1H-pyrazol-3-yl}-2H-indazol-2-yl)-1-phenylethan-1-ol]
DSF [1]: 26 K
IC50 [2]: 16.8 nM

CO[C@@H](Cn1cc2c(-c3nn(-c4cc5cn(C)nc5nc4C)c(C)c3C(C)C)cccc2n1)c1ccccc1 [Example 52, 4-(1-{2,6-dimethyl-2H-pyrazolo[3,4-b]pyridin-5-yl}-5-methyl-4-(propan-2-yl)-1H-pyrazol-3-yl)-2-[(2R)-2-methoxy-2-phenylethyl]-2H-indazole]
DSF [1]: 25 K
IC50 [2]: 19.9 nM

Cc1c(C(C)C)c(-c2cccc3nn(C[C@H](O)c4ccccc4)cc23)nn1-c1cc2cn(C)nc2nc1C1CCC1 [Example 53, (1R)-2-[4-(1-{6-cyclobutyl-2-methyl-2H-pyrazolo[3,4-b]pyridin-5-yl}-5-methyl-4-(propan-2-yl)-1H-pyrazol-3-yl)-2H-indazol-2-yl]-1-phenylethan-1-ol]
DSF [1]: 30 K
IC50 [2]: 28.6 nM
